Test results taken from patent US20240182470A1, “KRASG12C MUTANT PROTEIN INHIBITOR, PREARATION AND USE THEREOF” (YA THERAPEUTICS INC, priority 2021, published 2024).
Like-named read-outs stand apart in the source and are kept apart here.

Key:
[1] = test system: H358 (KRAS G12C mutant) cells; assay: Tumor cell proliferation inhibition assay (Cell Titer-Glo, 72 h); assay type: cell-based; conditions: inhibition of tumor cell proliferation, 72 hours with compound, 10% fetal bovine serum, read-out: NCI-H538 IC50(nm)
Summary of the method: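 H358 cells seeded, cultured 24 h, then exposed to serial compound concentrations for 72 h in 10% FBS at 37 °C, 5% CO2. ATP measured by CellTiter-Glo; % inhibition relative to DMSO (max) and medium-only (min) signals. IC50 from sigmoid dose-response fit, binned into categories A–D.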

[2] = biological target: T1, KRAS-G2C/SOS1 (Homo sapiens, UniProt P01116, G12C); assay: KRAS-G12C/SOS1 binding experiment (HTRF); conditions: Tag2-KRAS-G12C protein and Tag1-SOS protein
T1 construct: Tag2 (identity not disclosed)
Method: • A) Dilute Tag2-KRAS-G12C protein and Tag1-SOS protein with diluent at 1:100, anti-Tag1-Tb3+ antibody and anti-Tag2-XL665 with detection buffer at 1:100 or 1:25 respectively Dilute. • B) Dilute the compound to be tested with diluent starting from […] concentration, 4 times gradient, a total of 6 concentration gradients, and dilute to 10× stock solution. • C) In a 96-well plate, add 4 uLTag2-KRAS-G12C protein, 4 uL Tagl-SOS protein, 2 ul dilution solution (positive control) or test compound (different concentrations of 10× stock solution) to each well in sequence, a total of 10 ul, and incubate at room temperature for […], add pre-mixed 5 uL anti-Tagl-Tb3+ and 5 uL anti-Tag2-xL665, seal the plate, incubate at room temperature for 2 hours, and read the HTRF signal with a TECAN INFINITEF NANO+ microplate reader.
The ratio of […] and donor excitation signals for each single well was calculated using the formula ratio=665 nm signal value/620 nm signal value×[…]. Data were processed using Graphpadprism5 software. IC50 values were calculated by sigmoidal dose-response curve fitting.

[3] = background statement; cited from earlier work
[4] = biological target: KRAS G12C (Homo sapiens, UniProt P01116, G12C); conditions: background statement; cited from earlier work

Row | IC50 [2] | IC50 ([1]; Homo sapiens, NCI-H358) | Compound | IC50 [1] | also measured
1 | < 50 nM |  | 7-(8-Fluoronaphthyl)-6-fluoro-4-(((S)-4-(2-fluoroacryloyl)-3-carbonitrileethylpiperazine)-1-yl)-2-((((S)-1-methylpyrrolidin-2-yl)methoxy)-1,8-naphthyridine [Compound 5] | ≤ 50 nM | 
2 |  |  | C=CC(=O)N1CC(N2CCN(C(=O)CNc3cc(C4(C)CC4)c(Cl)cc3O)CC2)C1 [ARS-853] |  | pharmacokinetic properties [3]: poor
3 |  |  | C=CC(=O)N1CCN(c2ncnc3c(F)c(-c4c(O)cccc4F)c(Cl)cc23)CC1 [ARS-1620] |  | tumor effect in vivo [4]: induce tumor regression
4 | > 500 nM |  | C=CC(=O)N1CCN(c2cc(OC[C@@H]3CCCN3C)nc3nc(-c4c(O)cccc4F)ccc23)[C@H](C)C1 [Compound 1, 7-(2-Fluoro-6-hydroxyphenyl)-4-(((R)-4-acryloyl-2-methylpiperazine)-1-yl)-2-(((S)-1-methylpyrrolidin-2-yl)methoxy)-1,8-naphthyridine] | > 2000 nM | 
5 | > 500 nM | > 2000 nM | C=C(F)C(=O)N1CCN(c2cc(OC[C@@H]3CCCN3C)nc3nc(-c4c(O)cccc4F)c(F)cc23)[C@H](C)C1 [Compound 2, 7-(2-Fluoro-6-hydroxyphenyl)-6-fluoro-4-(((R)-4-(2-fluoroacryloyl)-2-methylpiperazine)-1-yl)-2-(((S)-1-methylpyrrolidin-2-yl)methoxy)-1,8-naphthyridine] |  | 
6 | > 500 nM | > 2000 nM | C=CC(=O)N1CCN(c2cc(OC[C@@H]3CCCN3C)nc3nc(-c4c(O)cccc4F)c(F)cc23)C[C@@H]1CC#N [Compound 3] |  | 
7 | > 500 nM | > 2000 nM | C=C(F)C(=O)N1CCN(c2cc(OC[C@@H]3CCCN3C)nc3nc(-c4c(O)cccc4F)c(F)cc23)C[C@@H]1CC#N [Compound 4, 7-(2-Fluoro-6-hydroxyphenyl)-6-fluoro-4-(((S)-4-(2-fluoroacryloyl)-3-carbonitrileethylpiperazine)-1-yl)-2-(((S)-1-methylpyrrolidin-2-yl)methoxy)-1,8-naphthyridine] |  | 
8 | < 50 nM | ≤ 50 nM | C=CC(=O)N1CCN(c2cc(OC[C@@H]3CCCN3C)nc3nc(-c4cccc5cccc(F)c45)c(F)cc23)[C@H](C)C1 [Compound 7] |  | 
9 |  |  | C=C(F)C(=O)N1CCN(c2nc(OC[C@@]34CCCN3CC(F)(F)C4)nc3nc(-c4cccc5cccc(F)c45)ccc23)C[C@@H]1CC#N [Compound 90, 7-(8-Fluoronaphthyl)-4-(((S)-4-(2-fluoroacryloyl)-3-carbonitrileethylpiperazine)-1-yl)-2-(((S)-2,2-difluorotetrahydro-1H-pyrincyclo-7a(5H)-yl)methoxy)pyridine[2,3-d]lopyrimidine] | ≤ 50 nM | 
10 |  |  | C=C(F)C(=O)N1CCN(c2nc(OC[C@@]34CCCN3CC(F)(F)C4)nc3nc(-c4cc(O)cc5cccc(F)c45)ccc23)C[C@@H]1CC#N [Compound 91, 7-(3-Hydroxy-8-fluoronaphthyl)-4-(((S)-4-(2-fluoroacryloyl)-3-carbonitrileethylpiperazine)-1-yl)-2-(((S)-2,2-difluorotetrahydro-1H-pyrincycl-7a(5H)-yl)methoxy)pyridine[2,3-d]lopyrimidine] | ≤ 50 nM | 
11 |  |  | C=C(F)C(=O)N1CCN(c2nc(OC[C@@]34CCCN3C[C@H](F)C4)nc3nc(-c4cccc5cccc(F)c45)ccc23)C[C@@H]1CC#N [Compound 92, 7-(8-Fluoronaphthyl)-4-(((S)-4-(2-fluoroacryloyl)-3-carbonitrileethylpiperazine)-1-yl)-2-(((2R,7aS)-2-fluorotetrahydro-1H-pyrincycl-7a(5H)-yl)methoxy)pyridine[2,3-d]lopyrimidine] | ≤ 50 nM | 
12 |  |  | C=C(F)C(=O)N1CCN(c2nc(OC[C@@]34CCCN3C[C@H](F)C4)nc3nc(-c4cccc5cccc(C)c45)ccc23)C[C@@H]1CC#N [Compound 93] | ≤ 50 nM | 

Row | Compound | IC50 [2] | IC50 ([1]; Homo sapiens, NCI-H358) | IC50 [1] | also measured
13 | C=CC(=O)N1C2CCC1CN(c1cc(OC[C@@]34CCCN3C[C@H](F)C4)nc3nc(-c4cccc5cccc(F)c45)c(F)cc13)C2 [Compound 28] | < 50 nM | ≤ 50 nM |  | 
